Reference: US20050182124A1, “Ester bacteriostat for stabilizing cosmetics” (VAMA FARMACOSMETICA S.r.l., priority 2004, published 2005)
≈ marks a conversion by molar mass, not a printed value. Where two headings read alike, the source gives them in different places.

Legend:
skin = experiment: Patch test (finn chamber) for skin compatibility: primary irritation and allergic response; format: in vivo, human; conditions: 25 healthy volunteers; about 20 μg solid product on the back, finn chamber 48 hours; read 15 mins, 1 hr and 24 hrs after removal
Method: The skin compatibility of the bacteriostat according to the invention, in terms of anergic response and of primary Irritation. was tested with the following patch tests.
A panel of 25 healthy volunteers was subjected to the application onto the back of about 20 μg of solid product with the use of a “finn chamber” (patch test). After 48 hours the “finn chamber” was removed and the skin reactions after 15 mins, 1 hr and 24 hrs from removal were clinically evaluated.

Pseudomonas aeruginosa = experiment: MIC (Minimal Inhibition Concentration) test on bacterial colonies; format: cell-based; conditions: read-out: MIC (Minimal Inhibition Concentration)
Method: (§1) With the purpose of evaluating the bacteriostatic activity of the bacteriostats of the invention, the following MIC (Minimal Inhibition Concentration) tests were carried out on bacterial colonies of “Pseudomonas aeruginosa” (Pa) and of “Staphylococcus aureus” (Sa), respectively with pure phenoxyethanol of formula (IV) and with phenoxyethanol ester of PCA of formula (V) of the invention.

Staphylococcus aureus = experiment: as above; format: cell-based; conditions: read-out: MIC (Minimal Inhibition Concentration)
Method: as §1

## O=C1CCC(C(=O)OCCOc2ccccc2)N1 (stereo not shown) [PCA Ester, phenoxyethanol ester of PCA]
skin
  skin irritation (primary irritation) in patch test: not to be irritating
  skin sensitization in patch test: did not sensitize the skin
Pseudomonas aeruginosa; Pseudomonas aeruginosa (Pa)
  MIC: 1000 µg/mL (≈ 4.01 mM)
Staphylococcus aureus; Staphylococcus aureus (Sa)
  MIC: 1000 µg/mL (≈ 4.01 mM)

## OCCOc1ccccc1 [phenoxyethanol, 2-phenoxyethanol, reference compound]
skin
  skin irritation (primary irritation) in patch test: moderately irritating
Pseudomonas aeruginosa; Pseudomonas aeruginosa
  MIC: 3200 µg/mL (≈ 23.2 mM)
Staphylococcus aureus; Staphylococcus aureus
  MIC: 6400 µg/mL (≈ 46.3 mM)
